Assay results taken from US20130344183A1, “NOVEL COMPOUND ISOLATED FROM […] ROXB AND USE THEREOF AS ANTIVIRAL AGENT” (priority 2011, published 2013).

System: A/Vietnam/1194/04(H5N1)-NIBRG-14 highly pathogenic avian influenza virus
Type: cell-based

Compound	CPE inhibitory concentration	log100TCID50/	Activity	viral titer lower than that of the control group
C=C1C(=O)O[C@@H]2[C@@H]1[C@H](OC(=O)/C(C)=C\C)[C@@]1(O)O[C@H](C[C@@H]1C)C[C@@](C)(O)[C@H]2OC(=O)C(C)C [Compound I, 2α,5-epoxy-5,10-dihydroxy-6α-angeloyloxy-9β-isobutyloxy-germacran-8α,12-olide]	>10 µg/mL	0		
C=C1C(=O)O[C@@H]2[C@@H]1[C@H](OC(=O)/C(C)=C\C)[C@@]1(O)O[C@H](C[C@@H]1C)C[C@@](C)(O)[C@H]2OC(=O)CC(C)C [Compound III, 2α,5-epoxy-5,10-dihydroxy-6α-angeloyloxy-9β-(3-methyl-butanoyloxy)-gemacran-8α,12-olide]	>10 µg/mL	0		
C=C1C(=O)OC2CC(C)(O)C3CCC(C)(O)C3CC12 (stereo not drawn) [Compound IV, 4β,10α-dihydroxy-guaia-8α,12-olide]		5	∘ (key: ∘: antiviral activity defined as a decrease of 4 log units)	4 log
